Values of other authors in patent publication US20240247024A1, “INHIBITORS OF NICOTINAMIDE N-METHYL TRANSFERASE (NNMT)” (UNIVERSITEIT LEIDEN, priority 2021, published 2024).

How the values were obtained:
NNMT = target: T1, NNMT (Homo sapiens, UniProt P40261); design: The enzymatic activity assays were performed using NNMT at a final concentration of 100 nM diluted in assay buffer; settings: background section, cited from earlier work
T1 sequence (P40261 1-264): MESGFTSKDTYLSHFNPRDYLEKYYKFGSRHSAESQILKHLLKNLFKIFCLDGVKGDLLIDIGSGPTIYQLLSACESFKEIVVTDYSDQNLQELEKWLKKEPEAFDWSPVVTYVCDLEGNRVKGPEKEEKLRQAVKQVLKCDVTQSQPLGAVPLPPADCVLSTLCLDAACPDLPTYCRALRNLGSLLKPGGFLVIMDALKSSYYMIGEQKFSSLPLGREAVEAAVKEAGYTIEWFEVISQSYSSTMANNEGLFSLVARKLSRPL

aged mouse model = settings: cited from earlier work
[1] = system: diet-induced obese (DIO) mice; settings: cited from earlier work
[2] = cited from earlier work
[3] = cited from earlier work; remark: listed apart in the source
HSC-2 oral cancer cells = settings: cited from earlier work
[4] = cited from earlier work; remark: listed apart in the source
U2OS cells = settings: cited from earlier work

C[n+]1cccc2c(N)cccc21 [Compound 5-amino-1-MQ, 5-amino-1-MQ]
IC50 (NNMT; known NNMT inhibitors, read-out: IC50 against NNMT): 1200 nM | muscle regeneration (aged mouse model): accelerate muscle regeneration | adipocyte size [1]: decreased | body weight and white adipose mass [1]: significantly reduced | plasma total cholesterol levels [1]: lowered

Nc1ncnc2c1ncn2[C@@H]1O[C@H](C[C@@H](N)CC[C@H](N)C(=O)O)[C@@H](O)[C@H]1O [Sinefungin, sinefungin]
toxicity in animal models [2]: severe toxicity | cell membrane permeability [3]: low cell membrane permeability

Nc1ncnc2c1ncn2[C@@H]1O[C@H](CN(CC[C@H](N)C(=O)O)Cc2ccc3ccccc3c2)[C@@H](O)[C@H]1O [GYZ191]
effect on cell viability (HSC-2 oral cancer cells): significant inhibitory effect

NC(=O)c1cccc(C#CCN(CC[C@H](N)C(=O)O)C[C@H]2O[C@@H](n3cnc4c(N)ncnc43)[C@H](O)[C@@H]2O)c1 [LL320]
cell permeability [4]: poor cell permeability

NC(=O)c1cccc(C#C[C@@H](CC[C@H](N)C(=O)O)C[C@H]2O[C@@H](n3cnc4c(N)ncnc43)[C@H](O)[C@@H]2O)c1 [NS1]
Ki (NNMT; known bisubstrate inhibitors, read-out: Ki against NNMT): 0.5 nM | MNA levels in cells (U2OS cells): only moderately decreased
